From patent US4097471A, “Polypeptides with morphine-like activity” (American Home Products Corporation, priority 1977, dated 1978)
Peptide text beside a SMILES is read from it.

Key:
[1] = tested on: pain threshold (tail-flick latency); test: rat-tail flick method, intracerebroventricular injection; type: in vivo; conditions: for Mean Latency ± SEM, Drug / Mean % Change ± SEM: injected into lateral ventricle; for Mean Latency ± SEM, Drug / Mean % Change ± SEM / analgesic effect / pain threshold: rat; for Mean % Change ± SEM: drug minus baseline latency; for analgesic effect / pain threshold: injected into the lateral brain ventricle
Description: In this test method, which is a standard test for analgesia, a light beam is focused on the tip of the rat's tail, and the pain threshold of the animal is measured by the latency of the rat to remove his tail from the noxious heat source. When tested by the rat-tail flick method by intracerebroventricular injection, according to the procedure of Belluzzi et al., Nature, 260, 625 (1976), the polypeptides of this invention produced the effects set forth in Table I.
*All drugs were dissolved in […]. of Ringer's solution and injected int
the lateral ventricle through permanently-indwelling cannulae.

[2] = tested on: analgesia; conditions: injection in the brain ventricle in rats; fully reversible by naloxone; cited from earlier work
[3] = tested on: opiate receptors; test: binding to opiate receptors in vitro, displacement of 3H-naloxone in rat brain homogenates

Row | Structure (SMILES) | Mean Latency ± SEM, Drug ([1]; dose 100 μg) | Mean % Change ± SEM ([1]; dose 100 μg) | analgesia [2] | Mean Latency ± SEM, Drug ([1]; dose 10 μg) | Mean % Change ± SEM ([1]; dose 10 μg) | Mean Latency ± SEM, Drug ([1]; dose 200 μg) | Mean % Change ± SEM ([1]; dose 200 μg) | analgesic activity at low dose ([1]; dose as low as 10 μg) | duration of analgesic effect ([1]; dose as low as 10 μg) | analgesic effect / pain threshold ([1]; listed as polypeptide of Formula I) | analgesic effect / pain threshold ([1]; listed as polypeptide of this invention) | binding to opiate receptors in vitro ([3]; in vitro) | displacing 3H-naloxone from binding sites ([3]; rat brain homogenates)
1 | CC(C)C[C@H](NC(=O)[C@H](Cc1ccccc1)NC(=O)CNC(=O)CNC(=O)[C@@H](N)Cc1ccc(O)cc1)C(=O)O [Leucine-Enkephalin, H-Tyr-Gly-Gly-Phe-Leu-OH, reference compound] | 5.11 ± 0.34 | 31.7 ± 11.5% | induce a profound analgesia | – | – | – | – | – | – | – | – | – | –
2 | CSCC[C@H](NC(=O)[C@H](Cc1ccccc1)NC(=O)CNC(=O)CNC(=O)[C@@H](N)Cc1ccc(O)cc1)C(=O)O [Methionine-Enkaphalin, H-Tyr-Gly-Gly-Phe-Met-OH] | – | – | induce a profound analgesia | – | – | – | – | – | – | – | – | – | –
3 | CC(C)C[C@H](NC(=O)[C@H](Cc1ccccc1)NC(=O)CNC(=O)CNC(=O)[C@@H](N)Cc1ccc(O)cc1)C(=O)N[C@H](C(=O)N[C@@H](CO)C(=O)N[C@@H](CCC(=O)O)C(=O)N[C@@H](CCCCN)C(=O)N[C@@H](CO)C(=O)N[C@@H](CCC(N)=O)C(=O)N[C@H](C(=O)N1CCC[C@H]1C(=O)N[C@@H](CC(C)C)C(=O)N[C@H](C(=O)N[C@H](C(=O)O)[C@@H](C)O)C(C)C)[C@@H](C)O)[C@@H](C)O [β-LPH 61-76 (Leu^65), L-Tyrosyl-glycyl-glycyl-L-phenylalanyl-L-leucyl-L-threonyl-L-seryl-L-glutamyl-L-lysyl-L-seryl-L-glutaminyl-L-threonyl-L-prolyl-L-leucyl-L-valyl-L-threonine] (H-YGGFLTSEKSQTPLVT-OH) | 6.26 ± 0.96 | 86.02 ± 30.79% | – | 4.33 ± 0.05 | 34.32 ± 8.75% | 4.16 | 3.04% | active | > 2 h | exerts an analgesic effect | produced an increase in pain threshold | weak binding | capable of displacing 3H-naloxone
